From the NIST ThermoML archive (doi:10.1021/je900468u)
Numbers after ± are expanded uncertainties.

Experiments:
[1] = refractive index (Na D-line) (dimensionless); xn = mol fraction of the nth substance listed; conditions: 101 kPa, Liquid, Standard Abbe refractometry
[2] = xn = mol fraction of the nth substance listed; conditions: 101 kPa, Liquid; for speed of sound: Pulse-echo method

c1ccccc1 [benzene] + C1CCCCCCC1
298.15 K, x2 = 0
Conditions | mass density [kg/m3] | refractive index | speed of sound [m/s]
[1] | – | 1.49774 ± 0.00068 | –
[2] | 873.6 ± 0.4 | – | 1299 ± 2

c1ccccc1 [benzene] + C1CCCCC1
x2 = 0
Conditions | mass density, [2] [kg/m3] | refractive index, [1] | speed of sound, [2] [m/s]
283.15 K | 889.5 ± 0.3 | 1.50765 ± 0.00073 | 1371 ± 2
298.15 K | 873.9 ± 0.4 | 1.49774 ± 0.00073 | 1299 ± 2

CCc1ccccc1 [ethylbenzene] + C1CCCCC1
Conditions | mass density, [2] [kg/m3] | refractive index, [1] | speed of sound, [2] [m/s]
283.15 K, x2 = 0 | 875.7 ± 0.4 | 1.50129 ± 0.00063 | 1382 ± 2
283.15 K, x2 = 0.0476 | 871.4 ± 0.4 | 1.49802 ± 0.00062 | 1377 ± 2
283.15 K, x2 = 0.0982 | 866.9 ± 0.4 | 1.49455 ± 0.00062 | 1372 ± 2
283.15 K, x2 = 0.1983 | 857.9 ± 0.4 | 1.48762 ± 0.00063 | 1364 ± 2
283.15 K, x2 = 0.2982 | 848.9 ± 0.4 | 1.48066 ± 0.00063 | 1356 ± 2
283.15 K, x2 = 0.3973 | 840.1 ± 0.4 | 1.47373 ± 0.00063 | 1349 ± 2
283.15 K, x2 = 0.5016 | 830.7 ± 0.4 | 1.46641 ± 0.00063 | 1342 ± 2
283.15 K, x2 = 0.6008 | 821.8 ± 0.4 | 1.45942 ± 0.00064 | 1337 ± 2
283.15 K, x2 = 0.6995 | 813.2 ± 0.4 | 1.45257 ± 0.00063 | 1332 ± 2
283.15 K, x2 = 0.7998 | 804.4 ± 0.4 | 1.44558 ± 0.00064 | 1329 ± 2
283.15 K, x2 = 0.8967 | 796.3 ± 0.5 | 1.43898 ± 0.00064 | 1328 ± 2
283.15 K, x2 = 0.9451 | 792.3 ± 0.5 | 1.43569 ± 0.00064 | 1328 ± 2
298.15 K, x2 = 0 | 862.5 ± 0.4 | 1.49304 ± 0.00063 | 1319 ± 2
298.15 K, x2 = 0.0476 | 858.2 ± 0.4 | 1.48992 ± 0.00063 | 1314 ± 2
298.15 K, x2 = 0.0982 | 853.7 ± 0.4 | 1.48645 ± 0.00063 | 1309 ± 2
298.15 K, x2 = 0.1983 | 844.7 ± 0.4 | 1.47947 ± 0.00063 | 1300 ± 2
298.15 K, x2 = 0.2982 | 835.6 ± 0.4 | 1.47245 ± 0.00063 | 1291 ± 2
298.15 K, x2 = 0.3973 | 826.7 ± 0.4 | 1.46552 ± 0.00063 | 1283 ± 2
298.15 K, x2 = 0.5016 | 817.2 ± 0.4 | 1.45815 ± 0.00063 | 1275 ± 2
298.15 K, x2 = 0.6008 | 808.3 ± 0.4 | 1.45116 ± 0.00063 | 1268 ± 2
298.15 K, x2 = 0.6995 | 799.5 ± 0.5 | 1.44433 ± 0.00063 | 1263 ± 2
298.15 K, x2 = 0.7998 | 790.7 ± 0.5 | 1.43731 ± 0.00063 | 1258 ± 2
298.15 K, x2 = 0.8967 | 782.4 ± 0.5 | 1.43062 ± 0.00064 | 1255 ± 2
298.15 K, x2 = 0.9451 | 778.4 ± 0.5 | 1.42735 ± 0.00064 | 1254 ± 2
